Results from patent publication US5175180A, “N-substituted N-(alpha-triazolyl-toluyl)pyrrole compounds and use for treatment of circulatory disorders” (G. D. Searle & Co., priority 1990, dated 1992).
Where two headings read alike, the source gives them in different places.

Legend:
angiotensin II = details: result in words, prior art; cited from earlier work
[1] = result in words, prior art; cited from earlier work
[2] = target: T1, rabbit aortic rings (angiotensin II response) (Oryctolagus cuniculus, UniProt P34976); test: Assay B: In Vitro Vascular Smooth Muscle Response for AII (aortic rings); format: cell-based, rabbit (male New Zealand white)
T1 construct: The thoracic aorta was removed, cleaned of adherent fat and connective tissue; from tissue; host or cells: thoracic aorta rings without endothelium, male New Zealand white rabbit
T1 sequence (P34976 1-359): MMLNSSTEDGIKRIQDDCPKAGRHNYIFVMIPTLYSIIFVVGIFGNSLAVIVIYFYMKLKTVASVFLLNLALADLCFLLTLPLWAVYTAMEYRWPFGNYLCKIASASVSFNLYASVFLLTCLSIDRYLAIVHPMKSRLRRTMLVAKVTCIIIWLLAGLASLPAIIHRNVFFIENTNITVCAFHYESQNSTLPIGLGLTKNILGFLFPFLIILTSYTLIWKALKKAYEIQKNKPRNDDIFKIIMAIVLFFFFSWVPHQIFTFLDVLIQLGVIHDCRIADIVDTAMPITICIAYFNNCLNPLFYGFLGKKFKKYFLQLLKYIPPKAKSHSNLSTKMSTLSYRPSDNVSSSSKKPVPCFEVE
Experimental: The compounds of the invention were tested for antagonist activity in rabbit aortic rings. Male New Zealand white rabbits (2-2.5 kg) were sacrificed using an overdose of pentobarbital and exsanguinated via the carotid arteries. The thoracic aorta was removed, cleaned of adherent fat and connective tissue and then cut into 3-mm ring segments. The endothelium was removed from the rings by gently sliding a rolled-up piece of filter paper into the vessel lumen. The rings were then mounted in a water-jacketed tissue bath, maintained at 37° C., between moveable and fixed ends of a stainless steel wire with the moveable end attached to an FTO3 Grass transducer coupled to a Model 7D Grass Polygraph for recording isometric force responses. The bath was filled with 20 ml of oxygenated (95% oxygen/5% carbon dioxide) Krebs solution of the following composition (mM): 130 NaCl, 15 NaHCO3, […], 1.2 NaH2 PO4, 1.2 MgSO4, 2.5 CaCl2, and 11.4 glucose. The preparations were equilibrated for one hour before approximately one gram of passive tension was placed on the rings. Angiotensin II concentration-response curves were then recorded (3×10^-10 to 1×10^-5 M). […] The effectiveness of the test compound was expressed in terms of pA2 values and were calculated according to H. O. Schild [Br. J. Pharmacol. Chemother., 2, 189-206 (1947)]. […] Each test antagonist was evaluated in aorta rings from two rabbits.

[3] = system: angiotensin II pressor response; test: Assay C: In Vivo Intraduodenal Pressor Assay Response for AII Antagonists; design: species or system rat (male Sprague-Dawley); details: 30 mg/kg i.d., average of two rats
Experimental: Angiotensin II injections were then given 5, 10, 20, 30, 45, 60, 75, 90, and 120 minutes after administration of the test compound and response of arterial pressure was monitored. […] Duration of action of a test compound was defined as the time from peak percent inhibition to 50% of peak.

[4] = target: smooth muscle angiotensin II receptor; test: Assay A: Angiotensin II Binding Activity (displacement of 125I-angiotensin II, rat uterine membrane preparation); details: 50% displacement of specifically bound 125I-AII; rat uterine membranes, 25° C., 60 min, pH 7.5
Experimental: Compounds of the invention were tested for ability to bind to the smooth muscle angiotensin II receptor using a rat uterine membrane preparation. […] Other chemicals were obtained from Sigma Chemical Co. This assay was carried out according to the method of Douglas et al [Endocrinology, 106, 120-124 (1980)]. Rat uterine membranes were prepared from fresh tissue. All procedures were carried out at 4° C. Uteri were stripped of fat and homogenized in phosphate-buffered saline at pH 7.4 containing 5 mM EDTA. The homogenate was centrifuged at 1500×g for 20 min., and the supernatant was recentrifuged at 100,000×g for 60 min. The pellet was resuspended in buffer consisting of 2 mM EDTA and 50 mM Tris-HCl (pH 7.5) to a final protein concentration of 4 mg/ml. […] The reaction was initiated by the addition of membrane protein and the mixture was incubated at 25° C. for 60 min. The incubation was terminated with ice-cold 50 mM Tris-HCl (pH 7.5) and the mixture was filtered to separate membrane-bound labelled peptide from the free ligand. The incubation tube and filter were washed with ice-cold buffer. Filters were assayed for radioactivity in a Micromedic gamma counter. […] Specific binding was calculated as total binding minus nonspecific binding. […] Binding data were analyzed by a nonlinear least-squares curve fitting program.

Row | Compound | angiotensin II antagonist activity (angiotensin II) | IC50 [4] [nM] | also measured
1 | CNCC(=O)N[C@@H](CCCN=C(N)N)C(=O)N[C@H](C(=O)N[C@@H](Cc1ccc(O)cc1)C(=O)N[C@H](C(=O)N[C@@H](Cc1cnc[nH]1)C(=O)N1CCC[C@H]1C(=O)N[C@@H](C)C(=O)O)C(C)C)C(C)C [Saralasin] | significant residual antagonist activity | – | –
2 | CCCCc1nc(Cl)c(CC(=O)O)n1Cc1ccccc1Cl [2-n-butyl-4-chloro-1-(2-chlorobenzyl)imidazole-5-acetic acid] | specific competitive angiotensin II antagonist activity | – | –
3 | Cc1ccc(C(c2ccc(-n3cccc3)cc2)n2cncn2)cc1 (stereo not shown) [1-[(4-methylphenyl)[4-(1H-pyrrol-1-yl)phenyl]methyl]-1H-1,2,4-triazole] | – | – | antibacterial and antifungal properties [1]: antibacterial and antifungal properties
4 | CCCCc1nc(CCCC)n(Cc2ccc(-n3c(Cl)cc(Cl)c3-c3nnn[nH]3)cc2)n1 [Example 5, 5-[1-[4-[(3,5-dibutyl-1H-1,2,4-triazol-1-yl)methyl]phenyl]-3,5-dichloro-1H-pyrrol-2-yl]-1H-tetrazole] | – | 52 | Kb [2]: 20 nM; Inhibition ([3]; percent inhibition of AII pressor response, AII 30 ng/kg i.v., ganglion-blocked anesthetized rats): 85%; Duration ([3]; time from peak percent inhibition to 50% of peak): 75 min
5 | CCCCc1nc(CCCC)n(Cc2ccc(-n3c(Br)ccc3-c3nnn[nH]3)cc2)n1 [Example 3, 5-[1-[4-[(3,5-di-n-butyl-1H-1,2,4-triazol-1-yl)methyl]phenyl]-5-bromo-1H-pyrrol-2-yl]-1H-tetrazole] | – | 110 | Kb ([2]; rabbit aortic rings, 37° C., antagonist 5 min before AII challenge, two rabbits, Schild, read-out: pA2 (converted)): 9.55 nM
6 | CCCCc1nc(Cl)c(CC(=O)O)n1Cc1ccccc1[N+](=O)[O-] [(2-butyl-4-chloro-1-(2-nitrobenzyl)imidazole-5-acetic acid] | specific competitive angiotensin II antagonist activity | – | –
